# From publication PMC11423184 (Advanced Science, 2024)
# Target: T1, SWELL1 channel (VRAC; SWELL1 = LRRC8A) (Mus musculus, UniProt Q80WG5)
# T1 construct: endogenous VRAC in mouse primary astrocytes and hippocampal CA1 neurons, full length; neuronal current absent in NEX-cKO
# T1 sequence (Q80WG5 1-810): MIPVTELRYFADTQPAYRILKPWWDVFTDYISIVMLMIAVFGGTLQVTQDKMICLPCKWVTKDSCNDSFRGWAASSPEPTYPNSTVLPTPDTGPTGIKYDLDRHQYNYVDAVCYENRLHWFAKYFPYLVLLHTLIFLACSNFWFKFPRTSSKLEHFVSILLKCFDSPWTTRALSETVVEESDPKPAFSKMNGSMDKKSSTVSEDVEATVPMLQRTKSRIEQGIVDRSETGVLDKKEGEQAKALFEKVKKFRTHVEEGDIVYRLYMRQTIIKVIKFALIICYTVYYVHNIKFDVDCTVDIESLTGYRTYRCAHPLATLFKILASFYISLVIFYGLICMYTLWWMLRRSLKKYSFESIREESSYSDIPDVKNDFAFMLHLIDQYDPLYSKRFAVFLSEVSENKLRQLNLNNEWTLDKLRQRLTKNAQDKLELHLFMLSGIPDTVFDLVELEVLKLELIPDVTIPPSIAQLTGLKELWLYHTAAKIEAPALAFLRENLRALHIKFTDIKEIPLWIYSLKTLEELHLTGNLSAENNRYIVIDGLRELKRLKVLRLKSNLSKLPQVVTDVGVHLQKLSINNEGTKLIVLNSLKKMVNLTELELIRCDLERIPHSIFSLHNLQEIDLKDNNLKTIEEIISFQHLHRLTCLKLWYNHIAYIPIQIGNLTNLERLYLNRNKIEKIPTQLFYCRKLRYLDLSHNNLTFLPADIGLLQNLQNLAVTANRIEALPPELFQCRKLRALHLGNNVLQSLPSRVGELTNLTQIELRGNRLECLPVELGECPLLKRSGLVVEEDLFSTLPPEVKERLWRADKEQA
# Assay: whole-cell patch clamp, primary astrocytes
# Assay type: cell-based
# Settings: hypotonicity-induced SWELL1 currents; concentration not given
compound,measurement,value
CC(=O)CC(c1ccccc1)c1c(O)c2ccccc2oc1=O (stereo not shown) [Warfarin],"whole-cell patch clamp, primary astrocytes","Warfarin, another anticoagulant of the same family, failed to inhibit hypotonicity‐induced SWELL1 currents"
